Results reported in patent US9247741B2, “Use of macrocyclic picolinamides as fungicides” (DOW AGROSCIENCES LLC, priority 2013, dated 2016).

Tests used:
Cercospora beticola = test: Leaf spot of sugar beets (CERCBE) disease control; type: in vivo; settings: 24 h, 1 Day Protectant, sugar beet, read-out: CERCBE disease control rating
Description: Technical grades of materials were dissolved in acetone, which were then mixed with nine volumes of water containing 110 ppm Triton X-100. The fungicide solutions were applied onto wheat seedlings using an automated booth sprayer to run-off. All sprayed plants were allowed to air dry prior to further handling. All fungicides were evaluated using the aforementioned method for their activity vs. all target diseases. Wheat leaf blotch and brown rust activity were also evaluated using track spray applications, in which case the fungicides were formulated as EC formulations, containing 0.1% Trycol 5941 in the spray solutions. Wheat plants (variety Yuma) were grown from seed in a greenhouse in 50% mineral soil/50% soil-less Metro mix until the first leaf was fully emerged, with 7-10 seedlings per pot. These plants were inoculated with an aqueous spore suspension of Septoria tritici either prior to or after fungicide treatments. After inoculation the plants were kept in 100% relative humidity (one day in a dark dew chamber followed by two to three days in a lighted dew chamber at 20° C.) to permit spores to germinate and infect the leaf. The plants were then transferred to a greenhouse set at 20° C. for disease to develop. When disease symptoms were fully expressed on the l^st leaves of untreated plants, infection levels were assessed on a scale of 0 to 100 percent disease severity. Percent disease control was calculated using the ratio of disease severity on treated plants relative to untreated plants. Evaluation of Fungicidal Activity: Leaf Spot of Sugar Beets (Cercospora beticola; Bayer Code CERCBE) Sugar beet plants (variety HH88) were grown in soil-less Metro mix and trimmed regularly to maintain a uniform plant size prior to test. Plants were inoculated with a spore suspension 24 hr after fungicide treatments. Inoculated plants were kept in a dew chamber at 22° C. for 48 hr then incubated in a greenhouse set at 24° C. under a clear plastic hood with bottom ventilation until disease symptoms were fully expressed. Fungicide formulation, application and disease assessment on the sprayed leaves followed the procedures as described in the Example A.

Venturia inaequalis = test: Apple scab (VENTIN) disease control; type: in vivo; settings: 1 Day Protectant, 100 ppm
Description: Technical grades of materials were dissolved in acetone, which were then mixed with nine volumes of water containing 110 ppm Triton X-100. The fungicide solutions were applied onto wheat seedlings using an automated booth sprayer to run-off. All sprayed plants were allowed to air dry prior to further handling. All fungicides were evaluated using the aforementioned method for their activity vs. all target diseases. Wheat leaf blotch and brown rust activity were also evaluated using track spray applications, in which case the fungicides were formulated as EC formulations, containing 0.1% Trycol 5941 in the spray solutions. Wheat plants (variety Yuma) were grown from seed in a greenhouse in 50% mineral soil/50% soil-less Metro mix until the first leaf was fully emerged, with 7-10 seedlings per pot. These plants were inoculated with an aqueous spore suspension of Septoria tritici either prior to or after fungicide treatments. After inoculation the plants were kept in 100% relative humidity (one day in a dark dew chamber followed by two to three days in a lighted dew chamber at 20° C.) to permit spores to germinate and infect the leaf. The plants were then transferred to a greenhouse set at 20° C. for disease to develop. When disease symptoms were fully expressed on the l^st leaves of untreated plants, infection levels were assessed on a scale of 0 to 100 percent disease severity. Percent disease control was calculated using the ratio of disease severity on treated plants relative to untreated plants. Evaluation of Fungicidal Activity: Apple Scab (Venturia inaequalis; Bayer code […]) Apple seedlings (variety McIntosh) were grown in soil-less Metro mix, with one plant per pot. Seedlings with two expanding young leaves at the top (older leaves at bottom of the plants were trimmed) were used in the test. Plants were inoculated with a spore suspension of Venturia inaequalis 24 hr after fungicide treatment and kept in a 22° C. dew chamber with 100% RH for 48 hr, and then moved to a greenhouse set at 20° C. for disease to develop. Fungicide formulation, application and disease assessment on the sprayed leaves followed the procedures as described in the Example A.

Phakopsora pachyrhizi = test: Asian soybean rust (PHAKPA) disease control; type: in vivo; settings: 25 ppm; for PHAKPA 1DP disease control rating: 1 Day Protectant; for PHAKPA 3DC disease control rating: 3 Day Curative
Description: Evaluation of Fungicidal Activity: Asian Soybean Rust (Phakopsora pachyrhizi; Bayer Code PHAKPA)
Technical grades of materials were dissolved in acetone, which were then mixed with nine volumes of water containing 0.011% Tween 20. The fungicide solutions were applied onto soybean seedlings using an automated booth sprayer to run-off. All sprayed plants were allowed to air dry prior to further handling.
Soybean plants (variety Williams 82) were grown in soil-less Metro mix, with one plant per pot. Two weeks old seedlings were used for testing. Plants were inoculated either 3 days prior to or 1 day after fungicide treatments. Plants were incubated for 24 h in a dark dew room at 22° C. and 100% RH then transferred to a growth room at 23° C. for disease to develop. Disease severity was assessed on the sprayed leaves.

SMILES	pest or weed control at 100 ppm (Cercospora beticola) [%]	VENTIN disease control rating (Venturia inaequalis)	PHAKPA 1DP disease control rating (Phakopsora pachyrhizi)	PHAKPA 3DC disease control rating (Phakopsora pachyrhizi)	melting point [°C]
CCCO[C@H]1CCC[C@H](NC(=O)c2nccc(OC)c2OCOC(C)=O)C(=O)O[C@@H](C)[C@@H]1CCC(C)C [Compound 25, ((2-(((3S,7S,8S,9S)-8-isopentyl-9-methyl-2-oxo-7-propoxyoxonan-3-yl)carbamoyl)-4-methoxypyridin-3-yl)oxy)methyl acetate]	> 70	A (>70)	A (>70)	B (≦70)	
CCCC[C@H]1[C@H](C)OC(=O)[C@@H](NC(=O)c2nccc(OC)c2OCOC(C)=O)CCC[C@@H]1Oc1ccccc1 [Compound 33]	> 70				
COc1ccnc(C(=O)N[C@H]2CCC[C@H](Oc3ccccc3)[C@@H](CCC(C)C)[C@H](C)OC2=O)c1OC(C)=O [Compound 36]	> 70	B (≦70)	A (>70)	B (≦70)	
COc1ccnc(C(=O)N[C@H]2CCC[C@H](Oc3ccccc3)[C@@H](CCC(C)C)[C@H](C)OC2=O)c1OCOC(C)=O [Compound 40]	> 70	A (>70)	A (>70)	B (≦70)	47 to 51
COc1ccnc(C(=O)N[C@H]2CCC[C@H](OCC3CC3)[C@@H](Cc3ccc(F)cc3)[C@H](C)OC2=O)c1OCOC(C)=O [Compound 61]	> 70				
CCCO[C@H]1CCC[C@H](NC(=O)c2nccc(OC)c2OC(C)=O)C(=O)O[C@@H](C)[C@@H]1Cc1ccccc1 [Compound 70]	> 70	A (>70)	A (>70)	B (≦70)	56 to 61
CCCC[C@H]1[C@H](C)OC(=O)[C@@H](NC(=O)c2nccc(OC)c2OCOC(C)=O)CCC[C@@H]1OCC1CC1 [Compound 73]	> 70				
CCCO[C@H]1CCC[C@H](NC(=O)c2nccc(OC)c2OC(C)=O)C(=O)O[C@@H](C)[C@@H]1CCC(C)C [Compound 74, 2-(((3S,7S,8S,9S)-8-isopentyl-9-methyl-2-oxo-7-propoxyoxonan-3-yl)carbamoyl)-4-methoxypyridin-3-yl acetate]	> 70	A (>70)	A (>70)	B (≦70)	46 to 50
